# From PubChem BioAssay (NCI)
#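 Dose response: 5 concentrations. Exposure: 48 h. Format: 96-well plates. Endpoint: linear interpolation; highest concentration if not reached. Definition used: TGI = concentration required for complete inhibition of growth.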
# Columns and labels:
# Assay in all cases: inhibition of tumour cell growth, NCI panel, 48 h
# SF-268 CNS = test system: SF-268 CNS
# HCT-116 colon = test system: HCT-116 colon
# UACC-62 melanoma = test system: UACC-62 melanoma
# SNB-19 CNS = test system: SNB-19 CNS
# HCT-15 colon = test system: HCT-15 colon
# MCF7 breast = test system: MCF7 breast
# UACC-257 melanoma = test system: UACC-257 melanoma
# CAKI-1 renal = test system: CAKI-1 renal
# NCI-H23 lung = test system: NCI-H23 lung
# SK-MEL-2 melanoma = test system: SK-MEL-2 melanoma
# HOP-62 NSCLC = test system: HOP-62 NSCLC
# KM12 colon = test system: KM12 colon
# TK-10 renal = test system: TK-10 renal
# MDA-N = test system: MDA-N
# MDA-MB-435 = test system: MDA-MB-435
# A549 NSCLC = test system: A549 NSCLC
# T-47D breast = test system: T-47D breast
# 786-0 renal = test system: 786-0 renal
# RXF 393 renal = test system: RXF 393 renal
# HCC-2998 colon = test system: HCC-2998 colon
# UO-31 renal = test system: UO-31 renal
# OVCAR-8 ovarian = test system: OVCAR-8 ovarian
# K-562 leukemia = test system: K-562 leukemia
# HL-60(TB) leukemia = test system: HL-60(TB) leukemia
# A498 renal = test system: A498 renal
# U251 CNS = test system: U251 CNS
# BT-549 breast = test system: BT-549 breast
# RPMI-8226 leukemia = test system: RPMI-8226 leukemia
# IGROV1 ovarian = test system: IGROV1 ovarian
# HS 578T breast = test system: HS 578T breast
# NCI/ADR-RES ovarian = test system: NCI/ADR-RES ovarian
# OVCAR-3 ovarian = test system: OVCAR-3 ovarian
# MOLT-4 leukemia = test system: MOLT-4 leukemia
# SN12C renal = test system: SN12C renal
# M14 melanoma = test system: M14 melanoma
# ACHN renal = test system: ACHN renal
# SF-539 CNS = test system: SF-539 CNS
# SK-OV-3 ovarian = test system: SK-OV-3 ovarian
# MDA-MB-231 breast = test system: MDA-MB-231 breast
# CCRF-CEM leukemia = test system: CCRF-CEM leukemia
# HOP-92 NSCLC = test system: HOP-92 NSCLC
# SK-MEL-5 melanoma = test system: SK-MEL-5 melanoma
# EKVX NSCLC = test system: EKVX NSCLC
# NCI-H460 lung = test system: NCI-H460 lung
# NCI-H226 lung = test system: NCI-H226 lung
# SF-295 CNS = test system: SF-295 CNS
# OVCAR-4 ovarian = test system: OVCAR-4 ovarian
# COLO 205 colon = test system: COLO 205 colon
# HT29 colon = test system: HT29 colon
# OVCAR-5 ovarian = test system: OVCAR-5 ovarian
# DU-145 prostate = test system: DU-145 prostate
# LOX IMVI melanoma = test system: LOX IMVI melanoma
# SK-MEL-28 melanoma = test system: SK-MEL-28 melanoma
# PC-3 prostate = test system: PC-3 prostate
# NCI-H522 lung = test system: NCI-H522 lung
# SNB-75 CNS = test system: SNB-75 CNS
# SW-620 colon = test system: SW-620 colon
structure (smiles),measurement,setting,value
CO/C=C(/C(=O)OC)c1ccccc1Oc1c(F)c(F)c(F)c(F)c1F,TGI,SF-268 CNS,> 100 µM
same,TGI,HCT-116 colon,56 µM
same,TGI,UACC-62 melanoma,68.5 µM
same,TGI,SNB-19 CNS,> 100 µM
same,TGI,HCT-15 colon,> 100 µM
same,TGI,MCF7 breast,> 100 µM
same,TGI,UACC-257 melanoma,82.7 µM
same,TGI,CAKI-1 renal,66.5 µM
same,TGI,NCI-H23 lung,> 100 µM
same,TGI,SK-MEL-2 melanoma,58.1 µM
same,TGI,HOP-62 NSCLC,> 100 µM
same,TGI,KM12 colon,> 100 µM
same,TGI,TK-10 renal,88.2 µM
same,TGI,MDA-N,> 100 µM
same,TGI,MDA-MB-435,77.8 µM
same,TGI,A549 NSCLC,> 100 µM
same,TGI,T-47D breast,73.1 µM
same,TGI,786-0 renal,> 100 µM
same,TGI,RXF 393 renal,63.8 µM
same,TGI,HCC-2998 colon,> 100 µM
same,TGI,UO-31 renal,> 100 µM
same,TGI,OVCAR-8 ovarian,> 100 µM
same,TGI,K-562 leukemia,> 100 µM
same,TGI,HL-60(TB) leukemia,5.72 µM
same,TGI,A498 renal,92.9 µM
same,TGI,U251 CNS,> 100 µM
same,TGI,BT-549 breast,> 100 µM
same,TGI,RPMI-8226 leukemia,41.2 µM
same,TGI,IGROV1 ovarian,97.7 µM
same,TGI,HS 578T breast,86 µM
same,TGI,NCI/ADR-RES ovarian,> 100 µM
same,TGI,OVCAR-3 ovarian,62.4 µM
same,TGI,MOLT-4 leukemia,30.4 µM
same,TGI,SN12C renal,> 100 µM
same,TGI,M14 melanoma,> 100 µM
same,TGI,ACHN renal,> 100 µM
same,TGI,SF-539 CNS,> 100 µM
same,TGI,SK-OV-3 ovarian,> 100 µM
same,TGI,MDA-MB-231 breast,> 100 µM
same,TGI,CCRF-CEM leukemia,98.5 µM
same,TGI,HOP-92 NSCLC,69.2 µM
same,TGI,SK-MEL-5 melanoma,40.8 µM
same,TGI,EKVX NSCLC,> 100 µM
same,TGI,NCI-H460 lung,> 100 µM
same,TGI,NCI-H226 lung,> 100 µM
same,TGI,SF-295 CNS,> 100 µM
same,TGI,OVCAR-4 ovarian,85.4 µM
same,TGI,COLO 205 colon,35.3 µM
same,TGI,HT29 colon,> 100 µM
same,TGI,OVCAR-5 ovarian,> 100 µM
same,TGI,DU-145 prostate,> 100 µM
same,TGI,LOX IMVI melanoma,> 100 µM
same,TGI,SK-MEL-28 melanoma,> 100 µM
same,TGI,PC-3 prostate,> 100 µM
COc1ccccc1C1(c2c(OC(C)C)c(=O)c2=O)SCCCS1,TGI,SF-268 CNS,> 100 µM
same,TGI,HCT-116 colon,> 100 µM
same,TGI,UACC-62 melanoma,> 100 µM
same,TGI,SNB-19 CNS,> 100 µM
same,TGI,HCT-15 colon,> 100 µM
same,TGI,MCF7 breast,> 100 µM
same,TGI,UACC-257 melanoma,> 100 µM
same,TGI,CAKI-1 renal,> 100 µM
same,TGI,NCI-H23 lung,> 100 µM
same,TGI,SK-MEL-2 melanoma,> 100 µM
same,TGI,HOP-62 NSCLC,> 100 µM
same,TGI,KM12 colon,> 100 µM
same,TGI,TK-10 renal,> 100 µM
same,TGI,MDA-N,> 100 µM
same,TGI,MDA-MB-435,> 100 µM
same,TGI,A549 NSCLC,> 100 µM
same,TGI,T-47D breast,> 100 µM
same,TGI,786-0 renal,> 100 µM
same,TGI,RXF 393 renal,> 100 µM
same,TGI,UO-31 renal,> 100 µM
same,TGI,OVCAR-8 ovarian,> 100 µM
same,TGI,HL-60(TB) leukemia,> 100 µM
same,TGI,A498 renal,> 100 µM
same,TGI,U251 CNS,> 100 µM
same,TGI,BT-549 breast,> 100 µM
same,TGI,IGROV1 ovarian,> 100 µM
same,TGI,HS 578T breast,> 100 µM
same,TGI,NCI-H522 lung,> 100 µM
same,TGI,NCI/ADR-RES ovarian,> 100 µM
same,TGI,OVCAR-3 ovarian,> 100 µM
same,TGI,MOLT-4 leukemia,> 100 µM
same,TGI,SNB-75 CNS,> 100 µM
same,TGI,SN12C renal,> 100 µM
same,TGI,M14 melanoma,> 100 µM
same,TGI,ACHN renal,> 100 µM
same,TGI,SF-539 CNS,> 100 µM
same,TGI,SK-OV-3 ovarian,> 100 µM
same,TGI,MDA-MB-231 breast,> 100 µM
same,TGI,CCRF-CEM leukemia,> 100 µM
same,TGI,HOP-92 NSCLC,> 100 µM
same,TGI,SK-MEL-5 melanoma,> 100 µM
same,TGI,EKVX NSCLC,> 100 µM
same,TGI,NCI-H460 lung,> 100 µM
same,TGI,NCI-H226 lung,> 100 µM
same,TGI,SF-295 CNS,> 100 µM
same,TGI,OVCAR-4 ovarian,> 100 µM
same,TGI,SW-620 colon,> 100 µM
same,TGI,COLO 205 colon,> 100 µM
same,TGI,HT29 colon,> 100 µM
same,TGI,OVCAR-5 ovarian,> 100 µM
same,TGI,DU-145 prostate,> 100 µM
same,TGI,LOX IMVI melanoma,> 100 µM
same,TGI,SK-MEL-28 melanoma,> 100 µM
same,TGI,PC-3 prostate,> 100 µM
